test system: Rhizoctonia solani (RHIZSO); test: microbe, parasite or virus in culture; type: cell-based; conditions: Rhizoctonia solani, read-out: RHIZSO in vitro Growth Inhibition

SMILES	inhibition at 25 ppm [%]
COCCC(=O)Oc1c(OC)ccnc1C(=O)Nc1ccc(C(=O)Oc2cccc(C(F)(F)F)c2)cc1 [Compound 716]	< 80
COc1ccnc(C(=O)NC2COC(=O)CC(c3ccccc3)C(=O)OC2)c1O (stereo not drawn) [Compound 375]	< 80
O=C(Nc1ccccc1Oc1ccc(C(F)(F)F)cc1)c1nc(Br)ccc1O [Compound 493]	< 80

test system: Erysiphe graminis—ERYSGT; test: Powdery Mildew of Wheat, in vivo whole plant, 24 Hour Protectant; conditions: Erysiphe; 100 ppm spray, wheat, 24 hour protectant, % control of fungal infection vs untreated plants; read-out: ERYSGT in vivo 1 Day Protectant

SMILES	pest or weed control at 100 ppm [%]
COCCC(=O)Oc1c(OC)ccnc1C(=O)Nc1ccc(C(=O)Oc2cccc(C(F)(F)F)c2)cc1 [Compound 716]	< 25

same assay, conditions: Erysiphe; 100 ppm spray, wheat, 24 hour protectant; control of fungal infection vs untreated plants; read-out: ERYSGT in vivo 1 Day Protectant

SMILES	pest or weed control at 100 ppm [%]
COc1ccnc(C(=O)NC2COC(=O)CC(c3ccccc3)C(=O)OC2)c1O (stereo not drawn) [Compound 375]	< 25

same assay, conditions: Erysiphe; wheat plants sprayed at 100 ppm, inoculated after 24 hours; control of fungal infection vs untreated plants; read-out: ERYSGT in vivo 1 Day Protectant

SMILES	pest or weed control at 100 ppm [%]
O=C(Nc1ccccc1Oc1ccc(C(F)(F)F)cc1)c1nc(Br)ccc1O [Compound 493]	< 25

test system: Puccinia recondita—PUCCRT; test: Brown Rust of Wheat, in vivo whole plant, 24 Hour Protectant; conditions: Puccinia; 100 ppm spray, wheat, 24 hour protectant, % control of fungal infection vs untreated plants; read-out: PUCCRT in vivo 1 Day Protectant

SMILES	pest or weed control at 100 ppm [%]
COCCC(=O)Oc1c(OC)ccnc1C(=O)Nc1ccc(C(=O)Oc2cccc(C(F)(F)F)c2)cc1 [Compound 716]	25 to 74

same assay, conditions: Puccinia; 100 ppm spray, wheat, 24 hour protectant; control of fungal infection vs untreated plants; read-out: PUCCRT in vivo 1 Day Protectant

SMILES	pest or weed control at 100 ppm [%]
COc1ccnc(C(=O)NC2COC(=O)CC(c3ccccc3)C(=O)OC2)c1O (stereo not drawn) [Compound 375]	< 25

same assay, conditions: Puccinia; wheat plants sprayed at 100 ppm, inoculated after 24 hours; control of fungal infection vs untreated plants; read-out: PUCCRT in vivo 1 Day Protectant

SMILES	pest or weed control at 100 ppm [%]
O=C(Nc1ccccc1Oc1ccc(C(F)(F)F)cc1)c1nc(Br)ccc1O [Compound 493]	< 25

test system: Mycosphaerella graminicola (Septoria tritici—SEPTTR); test: In vitro fungal growth inhibition, Mycosphaerella graminicola (SEPTTR); type: cell-based; conditions: Zymoseptoria tritici; 25 ppm in growth medium; read-out: SEPTTR in vitro Growth Inhibition

SMILES	inhibition at 25 ppm [%]
COCCC(=O)Oc1c(OC)ccnc1C(=O)Nc1ccc(C(=O)Oc2cccc(C(F)(F)F)c2)cc1 [Compound 716]	< 80
COc1ccnc(C(=O)NC2COC(=O)CC(c3ccccc3)C(=O)OC2)c1O (stereo not drawn) [Compound 375]	< 80

same assay, conditions: Zymoseptoria tritici; 25 ppm in the growth medium; read-out: SEPTTR in vitro Growth Inhibition

SMILES	inhibition at 25 ppm [%]
O=C(Nc1ccccc1Oc1ccc(C(F)(F)F)cc1)c1nc(Br)ccc1O [Compound 493]	< 80

test system: Stagonospora nodorum (Leptosphaeria nodorum—LEPTNO); test: In vitro fungal growth inhibition, Stagonospora nodorum (LEPTNO); type: cell-based; conditions: Leptosphaeria; 25 ppm in growth medium; read-out: LEPTNO in vitro Growth Inhibition

SMILES	inhibition at 25 ppm [%]
COCCC(=O)Oc1c(OC)ccnc1C(=O)Nc1ccc(C(=O)Oc2cccc(C(F)(F)F)c2)cc1 [Compound 716]	< 80
COc1ccnc(C(=O)NC2COC(=O)CC(c3ccccc3)C(=O)OC2)c1O (stereo not drawn) [Compound 375]	< 80

same assay, conditions: Leptosphaeria; 25 ppm in the growth medium; read-out: LEPTNO in vitro Growth Inhibition

SMILES	inhibition at 25 ppm [%]
O=C(Nc1ccccc1Oc1ccc(C(F)(F)F)cc1)c1nc(Br)ccc1O [Compound 493]	< 80

test system: Phytophthora infestans—PHYTIN; test: whole plant or invertebrate; type: in vivo; conditions: Phytophthora, in Solanum lycopersicum, 24 h, read-out: PHYTIN in vivo 1 Day Protectant

SMILES	pest or weed control at 100 ppm [%]
COCCC(=O)Oc1c(OC)ccnc1C(=O)Nc1ccc(C(=O)Oc2cccc(C(F)(F)F)c2)cc1 [Compound 716]	< 25
COc1ccnc(C(=O)NC2COC(=O)CC(c3ccccc3)C(=O)OC2)c1O (stereo not drawn) [Compound 375]	< 25
O=C(Nc1ccccc1Oc1ccc(C(F)(F)F)cc1)c1nc(Br)ccc1O [Compound 493]	< 25

test system: Ustilago maydis (USTIMA); test: microbe, parasite or virus in culture; type: cell-based; conditions: Mycosarcoma maydis, read-out: USTIMA in vitro Growth Inhibition

SMILES	inhibition at 25 ppm [%]
COCCC(=O)Oc1c(OC)ccnc1C(=O)Nc1ccc(C(=O)Oc2cccc(C(F)(F)F)c2)cc1 [Compound 716]	< 80
COc1ccnc(C(=O)NC2COC(=O)CC(c3ccccc3)C(=O)OC2)c1O (stereo not drawn) [Compound 375]	< 80
O=C(Nc1ccccc1Oc1ccc(C(F)(F)F)cc1)c1nc(Br)ccc1O [Compound 493]	< 80

test system: Leptosphaeria nodorum—LEPTNO; test: Glume Blotch of Wheat, in vivo whole plant, 24 Hour Protectant; conditions: Leptosphaeria; 100 ppm spray, wheat, 24 hour protectant, % control of fungal infection vs untreated plants; read-out: LEPTNO in vivo 1 Day Protectant

SMILES	pest or weed control at 100 ppm [%]
COCCC(=O)Oc1c(OC)ccnc1C(=O)Nc1ccc(C(=O)Oc2cccc(C(F)(F)F)c2)cc1 [Compound 716]	25 to 74

same assay, conditions: Leptosphaeria; 100 ppm spray, wheat, 24 hour protectant; control of fungal infection vs untreated plants; read-out: LEPTNO in vivo 1 Day Protectant

SMILES	pest or weed control at 100 ppm [%]
COc1ccnc(C(=O)NC2COC(=O)CC(c3ccccc3)C(=O)OC2)c1O (stereo not drawn) [Compound 375]	25 to 74

same assay, conditions: Leptosphaeria; wheat plants sprayed at 100 ppm, inoculated after 24 hours; control of fungal infection vs untreated plants; read-out: LEPTNO in vivo 1 Day Protectant

SMILES	pest or weed control at 100 ppm [%]
O=C(Nc1ccccc1Oc1ccc(C(F)(F)F)cc1)c1nc(Br)ccc1O [Compound 493]	< 25

test system: Phytophthora infestans (PHYTIN); test: microbe, parasite or virus in culture; type: cell-based; conditions: Phytophthora infestans, read-out: PHYTIN in vitro Growth Inhibition

SMILES	inhibition at 25 ppm [%]
COCCC(=O)Oc1c(OC)ccnc1C(=O)Nc1ccc(C(=O)Oc2cccc(C(F)(F)F)c2)cc1 [Compound 716]	< 80
COc1ccnc(C(=O)NC2COC(=O)CC(c3ccccc3)C(=O)OC2)c1O (stereo not drawn) [Compound 375]	< 80
O=C(Nc1ccccc1Oc1ccc(C(F)(F)F)cc1)c1nc(Br)ccc1O [Compound 493]	< 80

test system: Septoria tritici—SEPTTR; test: Leaf Blotch of Wheat, in vivo whole plant, 24 Hour Protectant; conditions: Zymoseptoria tritici, 24 h, 100 ppm spray, wheat, 24 hour protectant, % control of fungal infection vs untreated plants; read-out: SEPTTR in vivo 1 Day Protectant

SMILES	pest or weed control at 100 ppm [%]
COCCC(=O)Oc1c(OC)ccnc1C(=O)Nc1ccc(C(=O)Oc2cccc(C(F)(F)F)c2)cc1 [Compound 716]	25 to 74

same assay, conditions: Zymoseptoria tritici, 24 h, 100 ppm spray, wheat, 24 hour protectant; control of fungal infection vs untreated plants; read-out: SEPTTR in vivo 1 Day Protectant

SMILES	pest or weed control at 100 ppm [%]
COc1ccnc(C(=O)NC2COC(=O)CC(c3ccccc3)C(=O)OC2)c1O (stereo not drawn) [Compound 375]	25 to 74

same assay, conditions: Zymoseptoria tritici, 24 h, wheat plants sprayed at 100 ppm, inoculated after 24 hours; control of fungal infection vs untreated plants; read-out: SEPTTR in vivo 1 Day Protectant

SMILES	pest or weed control at 100 ppm [%]
O=C(Nc1ccccc1Oc1ccc(C(F)(F)F)cc1)c1nc(Br)ccc1O [Compound 493]	25 to 74

test system: Magnaporthe grisea (Pyricularia oryzae—PYRIOR); test: microbe, parasite or virus in culture; type: cell-based; conditions: Pyricularia oryzae, read-out: PYRIOR in vitro Growth Inhibition

SMILES	inhibition at 25 ppm [%]
COCCC(=O)Oc1c(OC)ccnc1C(=O)Nc1ccc(C(=O)Oc2cccc(C(F)(F)F)c2)cc1 [Compound 716]	< 80
COc1ccnc(C(=O)NC2COC(=O)CC(c3ccccc3)C(=O)OC2)c1O (stereo not drawn) [Compound 375]	< 80
O=C(Nc1ccccc1Oc1ccc(C(F)(F)F)cc1)c1nc(Br)ccc1O [Compound 493]	< 80

Reference: US6706740B2, “Fungicidal heterocyclic aromatic amides and their compositions, methods of use and preparation” (Dow AgroSciences LLC, priority 1999, dated 2004)
